From the supplement of paper PMC9512659

Columns and labels:
[1] = test system: Mycobacterium tuberculosis Erdman (pMV306hsp+LuxG13); test: AUC25, normalised area under the dose-response curve up to IC25 (normalised AUC (unitless)); higher = more potent
Description: (§1)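 DiaMOND pairwise dose responses of an equipotent two-drug mixture (1.5-fold, 10-dose series) against autoluminescent M. tuberculosis Erdman in 384-well plates. Growth inhibition was read by OD600 (luminescence for dormancy) in seven media at a constant and a terminal time point; metrics are means of at least biological duplicates. Einf and AUC25 higher = more potent; GRinf lower = more potent; log2FIC negative = synergy.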

[2] = test system: Mycobacterium tuberculosis Erdman (pMV306hsp+LuxG13); test: Einf, effect of the drug pair at infinite dose (maximum growth inhibition) (fraction inhibition (0-1)); higher = more potent; extreme values may be limits of the assay
Description: as §1

[3] = test system: Mycobacterium tuberculosis Erdman (pMV306hsp+LuxG13); test: log2 fractional inhibitory concentration at 90% inhibition (log2 FIC); higher = more antagonistic
Description: as §1

[4] = test system: Mycobacterium tuberculosis Erdman (pMV306hsp+LuxG13); test: GRinf, normalised growth-rate inhibition at infinite dose (GR value (unitless, negative = killing)); higher = less potent
Description: as §1

[5] = test system: Mycobacterium tuberculosis Erdman (pMV306hsp+LuxG13); test: log2 fractional inhibitory concentration at 50% inhibition (log2 FIC); higher = more antagonistic
Description: as §1

O=[N+]([O-])c1cn2c(n1)OC[C@@H](OCc1ccc(OC(F)(F)F)cc1)C2 [pretomanid] + CC(=O)NC[C@H]1CN(c2ccc(N3CCSCC3)c(F)c2)C(=O)O1 [sutezolid]
Settings	AUC25, [1]	Einf, [2]	GRinf, [4]	log2 fractional inhibitory concentration, [3]	log2 fractional inhibitory concentration, [5]
growth medium: acidic pH 5.7, glycerol, time point: constant time point	0.0784	0.879	-0.246	–	-0.119
growth medium: acidic pH 5.7, glycerol, time point: terminal time point	0.0823	0.987	-0.346	-0.449	0.0862
growth medium: butyrate 5 mM, time point: constant time point	0.0935	0.93	0.0242	–	1.07
growth medium: butyrate 5 mM, time point: terminal time point	0.0736	0.97	-0.0169	1.11	0.95
growth medium: cholesterol 0.05 mM, time point: constant time point	0.0266	0.865	-1	–	-0.159
growth medium: cholesterol 0.2 mM (cholesterol-high), time point: constant time point	0.0533	0.961	-0.417	0.19	-0.512
growth medium: cholesterol 0.2 mM (cholesterol-high), time point: terminal time point	0.0918	1	-0.326	-0.4	-0.395
growth medium: standard 7H9 OADC glycerol, time point: constant = terminal time point (4.2 d)	0.0632	0.988	-0.142	-0.266	0.0178
growth medium: valerate 0.1%, time point: constant time point	0.119	0.974	-0.158	–	-0.783
growth medium: valerate 0.1%, time point: terminal time point	0.0856	0.978	-0.0339	-0.487	-0.609

growth medium: hypoxic dormancy (butyrate + nitrate), then recovery
Settings	AUC25, [1]	Einf, [2]	GRinf, [4]	log2 fractional inhibitory concentration, [3]	log2 fractional inhibitory concentration, [5]
time point: constant time point	0.0715	0.965	0.332	-0.853	-0.376
time point: terminal time point	0.0423	0.932	0.457	-0.41	-0.056

NC(=O)c1cnccn1 [pyrazinamide] + CC(=O)NC[C@H]1CN(c2ccc(N3CCSCC3)c(F)c2)C(=O)O1 [sutezolid]
Settings	AUC25, [1]	Einf, [2]	GRinf, [4]	log2 fractional inhibitory concentration, [3]	log2 fractional inhibitory concentration, [5]
growth medium: acidic pH 5.7, glycerol, time point: constant time point	0.128	0.818	-0.0805	–	-0.856
growth medium: acidic pH 5.7, glycerol, time point: terminal time point	0.124	0.99	-0.272	-0.518	-0.292
growth medium: butyrate 5 mM, time point: constant time point	0.0878	0.913	0.0976	–	0.557
growth medium: butyrate 5 mM, time point: terminal time point	0.0684	0.949	0.124	–	–
growth medium: cholesterol 0.05 mM, time point: constant time point	0.0696	1	-1	–	0.194
growth medium: cholesterol 0.2 mM (cholesterol-high), time point: constant time point	0.0979	0.996	-0.785	0.258	0.242
growth medium: cholesterol 0.2 mM (cholesterol-high), time point: terminal time point	0.105	1	-0.929	0.207	-0.145
growth medium: valerate 0.1%, time point: constant time point	0.0804	0.884	-0.147	–	0.999
growth medium: valerate 0.1%, time point: terminal time point	0.0613	0.962	-0.0671	–	0.436

growth medium: hypoxic dormancy (butyrate + nitrate), then recovery
Settings	AUC25, [1]	Einf, [2]	GRinf, [4]	log2 fractional inhibitory concentration, [5]
time point: constant time point	0.0726	0.984	-0.401	–
time point: terminal time point	0.0286	0.786	-0.5	0.898

NC(=O)c1cnccn1 [pyrazinamide] + CC(C)=CCC/C(C)=C/CNCCNC1C2CC3CC(C2)CC1C3 [SQ109]
Settings	AUC25, [1]	Einf, [2]	GRinf, [4]	log2 fractional inhibitory concentration, [3]	log2 fractional inhibitory concentration, [5]
growth medium: butyrate 5 mM, time point: constant time point	0.0786	0.915	-0.00249	–	0.356
growth medium: butyrate 5 mM, time point: terminal time point	0.0634	0.946	0.022	–	0.129
growth medium: cholesterol 0.05 mM, time point: constant time point	0.116	0.894	-0.787	–	–
growth medium: cholesterol 0.2 mM (cholesterol-high), time point: constant time point	0.0592	0.977	-0.852	-0.16	0.707
growth medium: cholesterol 0.2 mM (cholesterol-high), time point: terminal time point	0.0665	0.997	-0.789	-0.347	0.668
growth medium: standard 7H9 OADC glycerol, time point: constant = terminal time point (4.2 d)	0.032	0.84	0.242	–	–
growth medium: valerate 0.1%, time point: constant time point	0.0384	0.933	0.0532	–	-0.164
growth medium: valerate 0.1%, time point: terminal time point	0.0424	0.944	0.0196	–	-0.462

CO[C@H]1/C=C/O[C@@]2(C)Oc3c(C)c(O)c4c(O)c(c(/C=N/N5CCN(C)CC5)c(O)c4c3C2=O)NC(=O)/C(C)=C\C=C\[C@H](C)[C@H](O)[C@@H](C)[C@@H](O)[C@@H](C)[C@H](OC(C)=O)[C@@H]1C [rifampicin] + CC(=O)NC[C@H]1CN(c2ccc(N3CCSCC3)c(F)c2)C(=O)O1 [sutezolid]
Settings	AUC25, [1]	Einf, [2]	GRinf, [4]	log2 fractional inhibitory concentration, [3]	log2 fractional inhibitory concentration, [5]
growth medium: acidic pH 5.7, glycerol, time point: constant time point	0.0817	0.853	-0.111	–	0.233
growth medium: acidic pH 5.7, glycerol, time point: terminal time point	0.076	0.977	-0.205	-0.595	0.315
growth medium: butyrate 5 mM, time point: constant time point	0.0989	0.911	0.0134	–	-0.239
growth medium: butyrate 5 mM, time point: terminal time point	0.0783	0.953	-0.0141	-0.298	-0.147
growth medium: cholesterol 0.2 mM (cholesterol-high), time point: constant time point	0.0474	0.988	-0.878	-0.588	-0.0927
growth medium: cholesterol 0.2 mM (cholesterol-high), time point: terminal time point	0.0807	1	-0.728	-0.315	-0.136
growth medium: standard 7H9 OADC glycerol, time point: constant = terminal time point (4.2 d)	0.0433	0.969	-0.0246	-0.846	-0.167
growth medium: valerate 0.1%, time point: constant time point	0.11	0.962	0.0594	–	1.45
growth medium: valerate 0.1%, time point: terminal time point	0.0701	0.979	-0.0207	0.302	0.427

growth medium: hypoxic dormancy (butyrate + nitrate), then recovery
Settings	AUC25, [1]	Einf, [2]	GRinf, [4]	log2 fractional inhibitory concentration, [3]	log2 fractional inhibitory concentration, [5]
time point: constant time point	0.0508	0.978	0.206	-0.578	-0.575
time point: terminal time point	0.06	0.971	0.237	-0.678	0.255

CO[C@H]1/C=C/O[C@@]2(C)Oc3c(C)c(O)c4c(O)c(c(/C=N/N5CCN(C)CC5)c(O)c4c3C2=O)NC(=O)/C(C)=C\C=C\[C@H](C)[C@H](O)[C@@H](C)[C@@H](O)[C@@H](C)[C@H](OC(C)=O)[C@@H]1C [rifampicin] + CC(C)=CCC/C(C)=C/CNCCNC1C2CC3CC(C2)CC1C3 [SQ109]
Settings	AUC25, [1]	Einf, [2]	GRinf, [4]	log2 fractional inhibitory concentration, [3]	log2 fractional inhibitory concentration, [5]
growth medium: butyrate 5 mM, time point: constant time point	0.0902	0.914	-0.0141	–	0.188
growth medium: butyrate 5 mM, time point: terminal time point	0.0763	0.959	-0.032	-0.456	0.0743
growth medium: cholesterol 0.2 mM (cholesterol-high), time point: constant time point	0.03	0.992	-0.905	-0.46	0.231
growth medium: cholesterol 0.2 mM (cholesterol-high), time point: terminal time point	0.0325	0.999	-0.83	-0.383	0.286
growth medium: standard 7H9 OADC glycerol, time point: constant = terminal time point (4.2 d)	0.0536	0.909	0.0752	–	0.0639
growth medium: valerate 0.1%, time point: constant time point	0.0301	0.956	0.0222	-0.583	-0.112
growth medium: valerate 0.1%, time point: terminal time point	0.0271	0.962	0.0133	-0.625	-0.128

growth medium: hypoxic dormancy (butyrate + nitrate), then recovery
Settings	AUC25, [1]	Einf, [2]	GRinf, [4]	log2 fractional inhibitory concentration, [3]	log2 fractional inhibitory concentration, [5]
time point: constant time point	0.0556	0.984	-0.371	-1.97	-1.51
time point: terminal time point	0.0342	0.964	0.12	-1.05	-0.863

CO[C@H]1/C=C/O[C@@]2(C)Oc3c(C)c(O)c4c(O)c(c(/C=N/N5CCN(C6CCCC6)CC5)c(O)c4c3C2=O)NC(=O)/C(C)=C\C=C\[C@H](C)[C@H](O)[C@@H](C)[C@@H](O)[C@@H](C)[C@H](OC(C)=O)[C@@H]1C [rifapentine] + CC(=O)NC[C@H]1CN(c2ccc(N3CCSCC3)c(F)c2)C(=O)O1 [sutezolid]
Settings	AUC25, [1]	Einf, [2]	GRinf, [4]	log2 fractional inhibitory concentration, [3]	log2 fractional inhibitory concentration, [5]
growth medium: acidic pH 5.7, glycerol, time point: constant time point	0.0889	0.884	-0.224	–	-0.201
growth medium: acidic pH 5.7, glycerol, time point: terminal time point	0.0808	0.987	-0.263	-0.527	0.0996
growth medium: butyrate 5 mM, time point: constant time point	0.0809	0.896	0.0472	–	0.129
growth medium: butyrate 5 mM, time point: terminal time point	0.0542	0.942	0.0324	-0.276	0.16
growth medium: cholesterol 0.05 mM, time point: constant time point	0.0962	1	-1	0.00059	-0.454
growth medium: cholesterol 0.05 mM, time point: terminal time point	0.135	1	-1	-0.142	-1.5
growth medium: cholesterol 0.2 mM (cholesterol-high), time point: constant time point	0.0718	1	-1	-0.285	-0.331
growth medium: cholesterol 0.2 mM (cholesterol-high), time point: terminal time point	0.0787	1	-0.769	-0.276	-0.38
growth medium: standard 7H9 OADC glycerol, time point: constant = terminal time point (4.2 d)	0.0417	0.983	-0.0675	-0.509	-0.00234
growth medium: valerate 0.1%, time point: constant time point	0.107	0.877	-0.107	–	-0.128
growth medium: valerate 0.1%, time point: terminal time point	0.0657	0.976	-0.0835	0.234	0.176

growth medium: hypoxic dormancy (butyrate + nitrate), then recovery
Settings	AUC25, [1]	Einf, [2]	GRinf, [4]	log2 fractional inhibitory concentration, [3]	log2 fractional inhibitory concentration, [5]
time point: constant time point	0.0482	0.974	0.21	-0.514	-0.541
time point: terminal time point	0.0473	0.963	0.209	0.244	0.397
